pEC50: −log10 of the molar value.
Tests used:
Hepatitis C virus [1] = experiment: Antiviral activity against Hepatitis C virus genotype 1b infected in human HuH7 cells after 72 hrs by FRET assay; format: functional, cell-based, Hepacivirus hominis; conditions: Huh-7, 72 h
Hepatitis C virus [2] = experiment: Antiviral activity against Hepatitis C virus genotype 1b; format: functional, Hepacivirus hominis
[3] = Cytotoxicity against human HuH7 cells by Alamar blue assay; format: cell-based, Huh-7
[4] = system: Bovine viral diarrhea virus 1; experiment: Antiviral activity against Bovine viral diarrhea virus infected in human HuH7 cells after 72 hrs by luciferase reporter gene assay; format: functional, organism-based; conditions: Bovine viral diarrhea virus isolates and strains, Huh-7, 72 h
[5] = Selectivity ratio of EC50 for Bovine viral diarrhea virus to EC50 for Hepatitis C virus genotype 1b; format: functional
Hepatitis C virus [6] = experiment: Selectivity ratio of EC50 for Hepatitis C virus genotype 1b harboring NS5A Y93H mutation to EC50 for Hepatitis C virus genotype 1b; format: functional, Hepacivirus hominis
Hepatitis C virus [7] = experiment: Antiviral activity against Hepatitis C virus genotype 1a; format: functional, Hepacivirus hominis; conditions: subtype 1a
Hepatitis C virus [8] = experiment: microbe, parasite or virus in culture; conditions: genotype 2a JFH-1
Description: Antiviral activity against Hepatitis C virus genotype 2a JFH

in vivo = conditions: rat, liver, 5 mg/kg
Description: Ratio of drug level in liver to plasma in rat at 5 mg/kg

Hepatitis C virus [9] = experiment: Antiviral activity against Hepatitis C virus genotype 1b infected in human assessed as log10 IU/ml reduction in mean plasma viral load at 100 mg measured at 24 hrs; format: functional, Hepacivirus hominis
Hepatitis C virus [10] = experiment: Antiviral activity against Hepatitis C virus genotype 1 infected in human assessed as log10 IU/ml reduction in mean plasma viral load at 1 mg measured at 24 hrs; format: functional, Hepacivirus hominis
Hepatitis C virus [11] = experiment: Antiviral activity against Hepatitis C virus genotype 1 infected in human assessed as log10 IU/ml reduction in mean plasma viral load at 10 mg measured at 24 hrs; format: functional, Hepacivirus hominis
Hepatitis C virus [12] = experiment: Selectivity ratio of EC50 for Hepatitis C virus genotype 1b harboring NS5A L31V/Q54L mutation to EC50 for Hepatitis C virus genotype 1b; format: functional, Hepacivirus hominis

With `C[C@H](NC(=O)OCc1ccccc1)C(=O)Nc1ccc(C2S/C(=N\c3cccc(F)c3)N(Cc3cnccn3)C2=O)cc1` (stereo partly drawn) the pEC50 (Hepatitis C virus [1]) was 7.42.

With `O=C(Nc1ccc(C2S/C(=N\c3cccc(F)c3)N(Cc3ccco3)C2=O)cc1)[C@@H]1CCCN1C(=O)CCc1ccccc1` (stereo partly drawn) the pEC50 (Hepatitis C virus [1]) was 5.26.

In the case of `O=C1N[C@H]2[C@H](CO[C@H]2CCCCC(=O)N2CCC[C@H]2C(=O)Nc2ccc(/C=C/c3ccc(NC(=O)[C@@H]4CCCN4C(=O)Cc4ccccc4)cc3)cc2)N1`, the pEC50 (Hepatitis C virus [2]) was less than 5.00.

For `C[C@H](NC(=O)OCc1ccccc1)C(=O)Nc1ccc(C2S/C(=N\c3ccc(N4CCOCC4)c(F)c3)N(Cc3ccco3)C2=O)cc1` (stereo partly drawn), the pEC50 (Hepatitis C virus [1]) was 7.82.

`C[C@H](NC(=O)OCc1ccccc1)C(=O)Nc1ccc(C2S/C(=N\c3cccc(F)c3)N(Cc3ccco3)C2=O)cc1` (stereo partly drawn) showed a CC50 [3] greater than 50000 nM, a pEC50 [4] of less than 4.30 and a pEC50 (Hepatitis C virus [1]) of 6.24. The Ratio EC50 [5] was greater than 50 and the “Ratio EC50” value (Hepatitis C virus [6]) was greater than 5.

Work on `O=C(Nc1ccc(C2S/C(=N\c3cccc(F)c3)N(Cc3ccco3)C2=O)cc1)[C@H]1CCCN1C(=O)OCc1ccccc1` (stereo partly drawn) yielded a pEC50 (Hepatitis C virus [1]) of 5.22.

Work on `O=C(Nc1ccc(C2S/C(=N\c3cccc(F)c3)N(Cc3ccco3)C2=O)cc1)[C@H]1CCCN1C(=O)Cc1ccccc1` (stereo partly drawn) yielded a pEC50 (Hepatitis C virus [1]) of 8.70.

In the case of `O=C(Nc1ccc(/C=C/c2ccc(NC(=O)[C@@H]3CCCN3C(=O)Cc3ccccc3)cc2)cc1)[C@@H]1CCCN1C(=O)Cc1ccccc1`, the pEC50 (Hepatitis C virus [7]) was less than 5.00.

`C[C@H](NC(=O)OCc1ccccc1)C(=O)Nc1ccc(C2S/C(=N\c3cccc(F)c3)N(Cc3ccccn3)C2=O)cc1` (stereo partly drawn) showed a pEC50 (Hepatitis C virus [1]) of 8.70.

In the case of `C[C@H](NC(=O)OCc1ccccc1)C(=O)Nc1ccc(C2S/C(=N\c3cccc(F)c3)N(Cc3cc(F)c(F)c(F)c3)C2=O)cc1` (stereo partly drawn), the pEC50 (Hepatitis C virus [1]) was 6.22.

Work on `COC(=O)N[C@H](C(=O)N1CCC[C@H]1c1ncc(-c2ccc(-c3ccc(-c4cnc([C@@H]5CCCN5C(=O)[C@@H](NC(=O)OC)C(C)C)[nH]4)cc3)cc2)[nH]1)C(C)C` yielded a pEC50 (Hepatitis C virus [8]) of 10.55, a Kp (in vivo) of 5 and an Activity (Hepatitis C virus [9]) of 3.6 log10IU/ml. For the same compound, the Activity (Hepatitis C virus [10]) was 1.8 log10IU/ml and the Activity (Hepatitis C virus [11]) was 3.2 log10IU/ml.

`C[C@H](NC(=O)CCc1ccccc1)C(=O)Nc1ccc(C2S/C(=N\c3cccc(F)c3)N(Cc3ccco3)C2=O)cc1` (stereo partly drawn) showed a pEC50 (Hepatitis C virus [1]) of 5.72.

With `C[C@H](NC(=O)Cc1ccccc1)C(=O)Nc1ccc(C2S/C(=N\c3cccc(F)c3)N(Cc3ccco3)C2=O)cc1` (stereo partly drawn) the “Ratio EC50” value (Hepatitis C virus [12]) was 354, the pEC50 (Hepatitis C virus [1]) was 8.30 and the “Ratio EC50” value (Hepatitis C virus [6]) was greater than 625.

Source: ChEMBL document CHEMBL3286147 (J Med Chem, 2014)
